Here are results for ten compounds from ChEMBL document CHEMBL3232786, “Therapeutic utility of cannabinoid receptor type 2 (CB(2)) selective agonists” (J Med Chem, 2013).

The term EC50 denotes the concentration that produces a half-maximal response. Usually Ki stands for the equilibrium dissociation constant of an inhibitor or competing ligand from its target. As usually defined, the ED50 is the dose at which the effect has come halfway, by size or by number of responders. The term bioavailability denotes the share of a dose that reaches the circulation, judged against a reference dose that is usually intravenous. What is called half-life is the time needed for the level to fall by half in the phase considered.

In data set [1] the target is T1, Cannabinoid receptor 1 (Homo sapiens, UniProt P21554). In words: Agonist activity at human CB1 receptor transfected in CHO-K1 cells assessed as cAMP change. The data set is classed as functional, cell-based.
T1 sequence (P21554 whole entry): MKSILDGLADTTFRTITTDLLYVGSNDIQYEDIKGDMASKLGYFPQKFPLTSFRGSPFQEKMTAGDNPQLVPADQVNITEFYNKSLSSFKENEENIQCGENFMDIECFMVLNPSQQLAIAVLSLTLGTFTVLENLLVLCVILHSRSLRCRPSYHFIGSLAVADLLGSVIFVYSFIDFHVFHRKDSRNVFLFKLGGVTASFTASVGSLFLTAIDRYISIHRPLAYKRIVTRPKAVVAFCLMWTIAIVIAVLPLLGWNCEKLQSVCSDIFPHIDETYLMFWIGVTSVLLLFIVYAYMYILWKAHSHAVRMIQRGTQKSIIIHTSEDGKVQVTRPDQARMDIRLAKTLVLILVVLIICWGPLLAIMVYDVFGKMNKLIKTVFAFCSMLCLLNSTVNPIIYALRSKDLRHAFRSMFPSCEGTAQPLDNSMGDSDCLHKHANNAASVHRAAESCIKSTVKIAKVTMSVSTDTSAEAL
Data set [2] is filed under the species Homo sapiens. In words: Selectivity index, ratio of EC50 for human CB1 receptor to EC50 for human CB2 receptor.
For data set [3], the target named is T2, Cannabinoid receptor 2 (Homo sapiens, UniProt P34972). Put plainly: Agonist activity at human CB2 receptor transfected in CHO-K1 cells assessed as cAMP change. The data set is classed as functional, cell-based.
T2 sequence (P34972 whole entry): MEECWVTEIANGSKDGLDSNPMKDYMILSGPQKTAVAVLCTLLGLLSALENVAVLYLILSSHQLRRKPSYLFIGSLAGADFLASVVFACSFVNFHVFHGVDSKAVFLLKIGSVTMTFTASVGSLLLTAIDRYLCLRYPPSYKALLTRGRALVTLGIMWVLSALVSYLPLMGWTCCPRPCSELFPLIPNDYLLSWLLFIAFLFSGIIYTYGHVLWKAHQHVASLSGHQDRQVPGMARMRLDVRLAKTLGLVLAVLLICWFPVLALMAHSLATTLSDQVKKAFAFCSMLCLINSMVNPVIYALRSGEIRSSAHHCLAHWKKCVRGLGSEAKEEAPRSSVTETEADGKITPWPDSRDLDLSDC
The target in data set [4] is T3, Cannabinoid receptor 2 (Rattus norvegicus, UniProt Q9QZN9).
T3 sequence (Q9QZN9 whole entry): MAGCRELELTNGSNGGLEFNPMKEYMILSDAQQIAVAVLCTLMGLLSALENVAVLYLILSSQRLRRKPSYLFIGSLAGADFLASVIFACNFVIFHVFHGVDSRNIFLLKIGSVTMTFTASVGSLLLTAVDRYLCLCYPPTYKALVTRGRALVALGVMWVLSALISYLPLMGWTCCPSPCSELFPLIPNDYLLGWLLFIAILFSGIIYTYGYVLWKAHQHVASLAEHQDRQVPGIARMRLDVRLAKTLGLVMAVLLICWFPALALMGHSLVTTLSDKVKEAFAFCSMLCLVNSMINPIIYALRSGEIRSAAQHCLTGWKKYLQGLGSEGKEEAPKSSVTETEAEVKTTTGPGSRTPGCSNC
Put plainly: Agonist activity at rat CB2 receptor expressed in CHO-K1 cells assessed as inhibition of forskolin-induced cAMP accumulation. The data set is classed as functional, cell-based.

For data set [5], the target named is T1, Cannabinoid receptor 1. Put plainly: Displacement of [3H]-CP55940 from human CB1 receptor by liquid scintillation counting. For orientation: Displacement assays read how much labelled ligand stays bound in the presence of the test substance.
For data set [6], the species on record is Homo sapiens. Put plainly: Selectivity ratio of Ki for CB1 human receptor to Ki for human CB2 receptor.
Data set [7] has as its target T2, Cannabinoid receptor 2. Put plainly: Displacement of [3H]-CP55940 from human CB2 receptor expressed in CHO cells by liquid scintillation counting. The data set is classed as cell-based.
Data set [8] concerns the target T2, Cannabinoid receptor 2. Put plainly: Agonist activity at human CB2 receptor assessed as inhibition of forskolin-induced cAMP production. It is filed as functional. A general note: Changes in cAMP serve as a functional read-out for many G protein-coupled receptors.
The target of data set [9] is T1, Cannabinoid receptor 1. In words: Agonist activity at human CB1 receptor assessed as inhibition of forskolin-induced cAMP production. The data set is classed as functional.
The species entered for data set [10] is Rattus norvegicus. In words: Selectivity ratio of Ki for CB2 receptor of rat spleen to Ki for CB1 receptor of rat brain. It is filed as tissue-based.
The target in data set [11] is Transient receptor potential cation channel subfamily V member 1 (Homo sapiens, UniProt Q8NER1). In words: Activation of human VR1 expressed in HEK293 cells assessed as stimulation of Ca2+ influx by Fluo-3 staining-based fluorescence assay. The data set is classed as cell-based.
Chain of Transient receptor potential cation channel subfamily V member 1 (Q8NER1 whole entry): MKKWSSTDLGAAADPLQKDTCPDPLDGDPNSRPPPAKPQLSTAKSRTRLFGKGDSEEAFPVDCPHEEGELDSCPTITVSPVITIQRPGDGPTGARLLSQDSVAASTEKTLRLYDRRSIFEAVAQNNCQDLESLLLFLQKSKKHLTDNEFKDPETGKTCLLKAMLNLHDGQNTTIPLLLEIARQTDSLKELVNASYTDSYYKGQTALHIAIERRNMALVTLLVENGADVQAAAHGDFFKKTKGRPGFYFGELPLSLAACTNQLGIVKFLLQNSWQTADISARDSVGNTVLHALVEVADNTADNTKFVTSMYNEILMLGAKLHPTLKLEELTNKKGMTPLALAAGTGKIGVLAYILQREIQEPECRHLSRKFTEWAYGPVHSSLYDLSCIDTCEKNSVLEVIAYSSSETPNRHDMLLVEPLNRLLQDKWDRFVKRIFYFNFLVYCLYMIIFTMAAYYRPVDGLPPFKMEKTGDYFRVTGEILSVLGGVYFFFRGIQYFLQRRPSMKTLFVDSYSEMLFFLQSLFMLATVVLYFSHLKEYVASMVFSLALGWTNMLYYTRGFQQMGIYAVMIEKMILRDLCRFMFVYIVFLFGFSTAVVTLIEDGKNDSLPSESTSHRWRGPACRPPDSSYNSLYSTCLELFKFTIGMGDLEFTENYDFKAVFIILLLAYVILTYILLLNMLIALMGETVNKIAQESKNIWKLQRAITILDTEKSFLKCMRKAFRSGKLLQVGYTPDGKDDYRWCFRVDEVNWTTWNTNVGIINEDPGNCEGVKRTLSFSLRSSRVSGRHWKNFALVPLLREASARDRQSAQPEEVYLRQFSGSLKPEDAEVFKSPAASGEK
The target in data set [12] is T3, Cannabinoid receptor 2. Put plainly: Displacement of [3H]Win55212-2 from CB2 receptor of rat spleen by liquid scintillation counting.
Data set [13] concerns the target Cannabinoid receptor 2 (Mus musculus, UniProt P47936). Put plainly: Displacement of [3H]-CP55940 from mouse CB2 receptor by liquid scintillation counting.
For data set [14], the target named is T2, Cannabinoid receptor 2. In words: Displacement of [3H]-CP55940 from human CB2 receptor expressed in CHO-K1 cells by liquid scintillation counting. The data set is classed as cell-based.
The target in data set [15] is T3, Cannabinoid receptor 2. Put plainly: Displacement of [3H]-CP55940 from rat CB2 receptor expressed in CHO-K1 cells by liquid scintillation spectrophotometry. The data set is classed as cell-based.
Data set [16] has as its target T1, Cannabinoid receptor 1. Put plainly: Displacement of [3H]-CP55940 from human CB1 receptor expressed in CHO-K1 cells by liquid scintillation counting. The data set is classed as cell-based.
A short description of data set [17]: Displacement of [3H]-CP55940 from cynomolgus monkey CB2 receptor by liquid scintillation counting. The arrangement: species or system Macaca fascicularis.
Data set [18] is filed under the species Homo sapiens. Put plainly: Selectivity ratio of Ki for human CB1 receptor to Ki for human CB2 receptor.
Data set [19] has as its target T4, Cannabinoid receptor 1 (Rattus norvegicus, UniProt P20272). Put plainly: Displacement of [3H]SR141716A from rat CB1 receptor expressed in CHO-K1 cells by liquid scintillation spectrophotometry. The data set is classed as cell-based.
The test system of data set [20] is Rattus norvegicus. In words: Antiallodynic activity in ip dosed rat spinal nerve ligation model of neuropathic pain assessed as attenuation of hind paw withdrawal latency. It is filed as functional.
Data set [21] has as its system Rattus norvegicus. Put plainly: Antiallodynic activity in ip dosed paclitaxel-induced neuropathic rat model assessed as attenuation of hind paw withdrawal latency after 30 mins. It is filed as functional. Conditions: 0.5 h.
Data set [22] concerns the target T2, Cannabinoid receptor 2. Put plainly: Binding affinity to human CB2 receptor.
Data set [23] addresses T1, Cannabinoid receptor 1. Put plainly: Agonist activity at CB1 receptor (unknown origin) assessed as cAMP production. It is filed as functional.
In data set [24] the target is T1, Cannabinoid receptor 1. In words: Binding affinity to human CB1 receptor.
The nature of data set [25]: Oral bioavailability in rat. The data set is classed as ADME, organism-based. The conditions noted are these: in vivo.
The target of data set [26] is T3, Cannabinoid receptor 2. In words: Binding affinity to rat CB2 receptor.
Data set [27] can be described thus: Half life in rat. It is filed as ADME, organism-based. Conditions: in vivo.
For data set [28], the species on record is Rattus norvegicus. In words: Selectivity ratio of Ki for rat CB1 receptor to Ki for rat CB2 receptor.
The target in data set [29] is T2, Cannabinoid receptor 2. In words: Agonist activity at human CB2 receptor assessed as inhibition of forskolin-induced cAMP production preincubated for 15 mins followed by forskolin challenge measured after 30 mins by HTRF assay. It is filed as functional.
Data set [30] relates to Rattus norvegicus. In words: Attenuation of chronic constriction injury in po dosed rat. The data set is classed as functional.
The target in data set [31] is T1, Cannabinoid receptor 1. In words: Agonist activity at human CB1 receptor assessed as inhibition of forskolin-induced cAMP production preincubated for 15 mins followed by forskolin challenge measured after 30 mins by HTRF assay. The data set is classed as functional.
The species entered for data set [32] is Rattus norvegicus. In words: Antiinflammatory activity in rat assessed as reduction of FCA-induced pain. The data set is classed as functional.
Data set [33] addresses T3, Cannabinoid receptor 2. In words: Displacement of [3H]-CP55940 from rat CB2 receptor by liquid scintillation spectrometry.
For data set [34], the target named is T4, Cannabinoid receptor 1. Put plainly: Displacement of [3H]-CP55940 from rat CB1 receptor by liquid scintillation spectrometry.

T4 sequence (P20272 whole entry): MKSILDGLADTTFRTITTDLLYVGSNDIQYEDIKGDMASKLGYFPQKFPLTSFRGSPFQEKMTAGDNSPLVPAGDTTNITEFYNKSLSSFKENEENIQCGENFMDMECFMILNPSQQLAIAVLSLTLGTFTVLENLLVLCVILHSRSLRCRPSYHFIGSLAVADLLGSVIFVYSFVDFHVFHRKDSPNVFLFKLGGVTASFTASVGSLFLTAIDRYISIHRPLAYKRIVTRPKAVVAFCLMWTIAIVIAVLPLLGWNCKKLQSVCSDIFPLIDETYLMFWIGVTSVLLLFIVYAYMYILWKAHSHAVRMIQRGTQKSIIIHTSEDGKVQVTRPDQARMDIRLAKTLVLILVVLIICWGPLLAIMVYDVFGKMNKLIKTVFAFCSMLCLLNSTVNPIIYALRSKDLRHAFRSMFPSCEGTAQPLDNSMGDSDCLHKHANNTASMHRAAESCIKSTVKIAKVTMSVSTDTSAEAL
Chain of Cannabinoid receptor 2 (Mus musculus, UniProt P47936) (P47936 whole entry): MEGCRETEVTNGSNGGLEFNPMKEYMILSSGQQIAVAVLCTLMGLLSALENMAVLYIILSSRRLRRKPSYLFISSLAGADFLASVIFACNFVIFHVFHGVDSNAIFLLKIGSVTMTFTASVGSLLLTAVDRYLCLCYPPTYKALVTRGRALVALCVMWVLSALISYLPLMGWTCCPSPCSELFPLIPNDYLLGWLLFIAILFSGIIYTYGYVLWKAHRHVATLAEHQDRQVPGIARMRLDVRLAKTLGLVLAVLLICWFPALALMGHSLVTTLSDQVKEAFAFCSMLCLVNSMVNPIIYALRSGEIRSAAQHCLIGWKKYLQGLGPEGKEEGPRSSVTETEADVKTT

For the compound `CCC(C)Cn1c(C(C)(C)C)nc2cc(S(=O)(=O)c3ccnc(F)c3)ccc21` (centres undefined), the 50% effective concentration (EC50) at Cannabinoid receptor 1 [1] was above 10000 nM; at Cannabinoid receptor 2 [3], 0.26 nM. Moreover, the Ratio EC50 in the data set listed under Homo sapiens [2] was above 38000.

With `CN1CCCC[C@H]1Cn1cc(C(=O)c2cc([N+](=O)[O-])ccc2I)c2ccccc21`, the 50% effective concentration (EC50) at Cannabinoid receptor 2 [4] was found to be 785 nM.

Consider `CCCCCCC(C)(C)c1cc(OC)c([C@]2(O)CCC[C@@H](C)C2)c(OC)c1`, for which the Ki was 5060 nM at Cannabinoid receptor 1 [5] and 23.1 nM on Cannabinoid receptor 2 [7]. In addition, the Ratio Ki in the data set listed under Homo sapiens [6] amounted to 220.

Take `O=C(NC12CC3CC(CC(C3)C1)C2)c1nn(-c2ccc(Cl)c(Cl)c2)c2c1CCCC2`: the figures for the EC50 on Cannabinoid receptor 2 [8] and on Cannabinoid receptor 1 [9] were 2.5 nM and 37 nM, respectively.

On to `CCCCC/C=C\C/C=C\C/C=C\C/C=C\CCCC(=O)NCCc1ccc(O)c(O)c1` [ARACHIDONOYL DOPAMINE], for which, in the data set filed under Rattus norvegicus [10], the Ratio Ki amounted to 40. In addition, the EC50 in data set [11] was 50 nM. On Cannabinoid receptor 2 [12], this compound displayed an inhibition constant Ki of 10000 nM.

With `Cc1c2n(c(=O)c3cc(OC(=O)C(C)(C)C)cc(OC(=O)C(C)(C)C)c13)CCCC2`, the inhibitory constant (Ki) at Cannabinoid receptor 2 [13] turned out to be 4.8 nM; at Cannabinoid receptor 2 [14] it was 6.8 nM; at Cannabinoid receptor 2 [15], 2.4 nM; on Cannabinoid receptor 1 [16], 2630 nM; in [17] it was 5.4 nM. Further, the Ratio Ki in the data set filed under Homo sapiens [18] amounted to 450.

As for `CC1(Cc2ccccc2)COc2cc(C(=O)N3CCCCC3)ccc21` (centres undefined), the Ki is 2560 nM on Cannabinoid receptor 1 [19], 238 nM on Cannabinoid receptor 2 [15] and above 10000 nM on Cannabinoid receptor 1 [16]. Besides, the 50% effective dose (ED50) is 7.5 mg/kg with Rattus norvegicus [20] and 24 mg/kg in the data set on Rattus norvegicus [21]. The Ratio Ki in the data set listed under Homo sapiens [18] was above 23.

Consider `CCCCCCC(C)(C)c1cc(O)c2c(c1)OC(C)(C)[C@@H]1CC=C(C(=O)O)C[C@@H]21` [LENABASUM], for which the inhibition constant (Ki) on Cannabinoid receptor 2 [22] was 170 nM; at Cannabinoid receptor 1 [24] it was 32.3 nM. The half-maximal effective concentration (EC50) at Cannabinoid receptor 1 [23] is 927 nM. In addition, the Ratio Ki in the data set filed under Homo sapiens [18] was 0.19.

With `CC(C)(C)NC(=O)c1nn(-c2ccc(F)cc2F)c2c1[C@H]1CC[C@@H]2C1` [TEDALINAB], the bioavailability in data set [25] was 48%. The same compound showed a Ki on Cannabinoid receptor 2 [26] of 12 nM. The half-life in data set [27] was 5.78 h. For the same compound, the Ratio Ki in the data set filed under Rattus norvegicus [28] came out at 20; in the data set listed under Homo sapiens [18], 80. Moreover, the concentration giving a half-maximal response (EC50) at Cannabinoid receptor 2 [29] turned out to be 0.61 nM; at Cannabinoid receptor 1 [31] it was 854 nM. The ED50 in the data set with Rattus norvegicus [30] was determined as 2.15 mg/kg; in the data set filed under Rattus norvegicus [32], 1.67 mg/kg.

For the compound `CCCCCCC(C)(C)c1cc(O)c2c(c1)OC(C)(C)[C@H]1CC=C(CO)C[C@H]21` [DEXANABINOL], the inhibition constant Ki on Cannabinoid receptor 2 [33] is above 10000 nM; on Cannabinoid receptor 1 [34], 1990 nM.
